This test concerns the target T1, Rv2607 (PNPOx) (Mycobacterium tuberculosis, UniProt P9WIJ1).
T1 construct: gene pdxH

T1 sequence (P9WIJ1 whole entry): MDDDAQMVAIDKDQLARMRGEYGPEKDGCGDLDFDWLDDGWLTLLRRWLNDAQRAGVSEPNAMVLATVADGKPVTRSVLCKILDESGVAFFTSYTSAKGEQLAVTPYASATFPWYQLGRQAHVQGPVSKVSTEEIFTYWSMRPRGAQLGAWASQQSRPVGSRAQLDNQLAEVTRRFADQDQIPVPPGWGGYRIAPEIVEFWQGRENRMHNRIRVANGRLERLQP

On to `Cc1cc2nc3c(=O)[nH]c(=O)nc-3n(C[C@H](O)[C@H](O)[C@H](O)COP(=O)(O)O)c2cc1C` [FMN], for which the “native nESI-MS of intact complex; ESI-MS identification of extracted cofactor” value was “The yellow cofactor bound tightly to Rv2607 as purified and was unambiguously identified as FMN”.

The values are drawn from publication PMC3215729, “Rv2607 from Mycobacterium tuberculosis Is a Pyridoxine 5′-Phosphate Oxidase with Unusual Substrate Specificity” (PLoS ONE, 2011).
